From patent publication US8569339B2, “Soluble guanylate cyclase activators” (Boehringer Ingelheim International GmbH, priority 2011, dated 2013) come the findings set out here.

The term EC50 denotes the concentration needed to bring the measured effect to its halfway point.

Series [1] deals with T1, Recombinant human soluble guanylate cyclase (sGC) (Homo sapiens, UniProt Q02153).
T1 construct: histidine tag (C); made in house; host or cells: Sf9 insect cells (baculovirus coinfection)
The series can be described thus: Molecular assay: activation of heme-free sGC, cGMP detection (CisBio kit). The class given is biochemical. Conditions: 300 pM heme-free sGC, 37° C., 60 minutes, cGMP formation. The method in brief: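 Heme-free human α1/β1 sGC (His-tagged, Sf9-expressed, Tween 20-treated) at 300 pM incubated with compound in pH 6.8 MOPS buffer with 50 nM GTP, IBMX, 1% DMSO, 60 min at 37 °C. cGMP quantified by HTRF against a calibration curve; EC50 from combined undiluted and 80-fold diluted readings.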

The nature of series [2]: Assessment of solubility (HT solubility, pION, UV). Conditions: incubated 16-19 hours, 1.0% DMSO, 100 uM; for solubility kinetic: pH 4.5 buffer (pION system solution), pH 4.5, aqueous buffer, kinetic from dmso stock, pH 4.5 buffer, read-out: Sol pH 4.5; for Sol pH 7.4: pH 7.4 buffer. The class given is physicochemical. The gist of the method: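 Compounds were taken from 10 mM DMSO stocks into pH 4.5 or pH 7.4 buffer at 100 uM final (1.0% DMSO), run in duplicate, and incubated sealed for 16-19 h. Filtrates were diluted with N-propanol and read by UV at 250-498 nm against blank and reference spectra, […].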

Converted amounts (≈) assume the structure as drawn.

T1 sequence (Q02108 whole entry partner): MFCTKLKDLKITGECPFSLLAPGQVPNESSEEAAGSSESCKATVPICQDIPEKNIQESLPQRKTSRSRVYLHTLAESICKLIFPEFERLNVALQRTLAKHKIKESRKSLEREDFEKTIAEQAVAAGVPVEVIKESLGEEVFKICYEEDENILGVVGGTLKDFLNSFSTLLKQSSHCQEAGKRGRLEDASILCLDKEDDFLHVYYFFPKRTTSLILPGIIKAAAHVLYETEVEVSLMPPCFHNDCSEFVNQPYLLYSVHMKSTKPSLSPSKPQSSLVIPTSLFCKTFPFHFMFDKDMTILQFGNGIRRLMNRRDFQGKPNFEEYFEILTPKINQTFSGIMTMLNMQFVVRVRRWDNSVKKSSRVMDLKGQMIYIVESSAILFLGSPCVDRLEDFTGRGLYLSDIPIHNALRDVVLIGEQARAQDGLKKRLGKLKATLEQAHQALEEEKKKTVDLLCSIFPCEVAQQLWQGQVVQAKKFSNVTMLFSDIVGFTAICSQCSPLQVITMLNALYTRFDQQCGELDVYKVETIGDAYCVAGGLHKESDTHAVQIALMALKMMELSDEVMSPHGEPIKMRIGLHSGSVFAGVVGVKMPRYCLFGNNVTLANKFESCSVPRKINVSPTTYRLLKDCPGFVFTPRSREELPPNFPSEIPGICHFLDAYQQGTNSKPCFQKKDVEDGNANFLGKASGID
T1 sequence (Q02153 whole entry): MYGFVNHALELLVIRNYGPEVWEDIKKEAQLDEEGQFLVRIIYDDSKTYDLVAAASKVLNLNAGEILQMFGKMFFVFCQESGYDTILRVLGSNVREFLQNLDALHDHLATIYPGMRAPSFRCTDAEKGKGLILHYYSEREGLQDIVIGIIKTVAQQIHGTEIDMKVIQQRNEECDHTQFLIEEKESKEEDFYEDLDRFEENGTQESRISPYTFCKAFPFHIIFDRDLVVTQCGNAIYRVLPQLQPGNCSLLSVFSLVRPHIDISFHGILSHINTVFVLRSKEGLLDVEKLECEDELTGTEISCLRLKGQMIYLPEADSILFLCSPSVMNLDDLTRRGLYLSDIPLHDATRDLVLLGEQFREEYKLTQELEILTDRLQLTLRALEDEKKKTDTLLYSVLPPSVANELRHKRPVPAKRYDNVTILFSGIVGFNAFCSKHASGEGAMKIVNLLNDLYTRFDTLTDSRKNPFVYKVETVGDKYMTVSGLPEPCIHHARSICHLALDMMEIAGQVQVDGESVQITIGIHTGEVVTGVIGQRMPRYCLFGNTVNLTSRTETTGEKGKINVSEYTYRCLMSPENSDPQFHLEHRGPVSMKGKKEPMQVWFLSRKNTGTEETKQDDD

For the compound `Cc1ccc(OCc2ccc3c(c2)CCN(C2CCC(C(F)(F)F)CC2)C3)c(-c2cccc(-n3ncc(C(=O)O)c3C(F)(F)F)n2)c1` (stereo not drawn) [Compound 33], in series [1], the EC50 was 6 nM. Moreover, in series [2], the solubility kinetic came out at 6.3 µg/mL (≈ 9.57 µM) and the “Sol pH 7.4” value is given as 4.6 μg/mL.
In the same order, the values of `Cc1ccc(OCc2ccc3c(c2)CCN(C2CCOCC2)C3)c(-c2cccc(-n3ncc(C(=O)O)c3C)n2)c1` [Compound 65] are 134 nM, above 53 µg/mL and above 53 μg/mL.
Regarding `Cc1ccc(OCc2ccc3c(c2C)CCN(C2CCOCC2)C3)c(-c2cccc(-c3c(C)c(C(=O)O)nn3C)n2)c1` [Compound 80], the EC50 in series [1] came to 155 nM. Also, in series [2], the solubility kinetic is above 81 µg/mL and the “Sol pH 7.4” value is reported as above 81 μg/mL.
In the same order, the values of `Cc1ccc(OCc2ccc3c(c2)CCN(C2CCOCC2)C3)c(-c2cccc(-n3cnc(C(=O)O)c3C)n2)c1` [Compound 58] are 2600 nM, above 78 µg/mL and above 78 μg/mL.
For `Cc1cccc(-c2cccc(-c3c(C)c(C(=O)O)nn3CC(F)(F)F)n2)c1OCc1ccc2c(c1)CCN(C1CCOCC1)C2` [Compound 87], in series [1], the concentration for a half-maximal effect (EC50) was 180 nM. In series [2], the solubility kinetic was found to be 17.3 µg/mL (≈ 27.9 µM) and the “Sol pH 7.4” value is 14.1 μg/mL.
As to `Cc1ccc(OCc2ccc3c(c2C)CCN(C)C3)c(-c2cccc(-n3ncc(C(=O)O)c3C(F)(F)F)n2)c1` [Compound 38], in series [1], the EC50 is 46 nM. In series [2], the solubility kinetic was determined as 15.5 µg/mL (≈ 28.9 µM) and the “Sol pH 7.4” value was determined as 18.4 μg/mL.
The matching figures for `Cc1ccc(OCc2ccc3c(c2)CCN(C2CC2)C3)c(-c2cccc(-n3ncc(C(=O)O)c3C(F)(F)F)n2)c1` [Compound 12]: 19 nM, above 54 µg/mL and above 54 μg/mL.
Take `Cc1ccc(OCc2ccc3c(c2)CCN(Cc2ccccc2)C3)c(-c2cccc(-n3ncc(C(=O)O)c3C(F)(F)F)n2)c1` [Compound 27]: the EC50 in series [1] was 6 nM. Besides, in series [2], the solubility kinetic is 18.2 µg/mL (≈ 30.4 µM) and the “Sol pH 7.4” value turned out to be 25.6 μg/mL.
Regarding `Cc1cccc(-c2cccc(-c3c(C)c(C(=O)O)nn3C3CCOCC3)n2)c1OCc1ccc2c(c1)CCN(C1CCOCC1)C2` [Compound 89], the EC50 in series [1] is 700 nM. Further, in series [2], the solubility kinetic amounted to 51.5 µg/mL (≈ 82.7 µM) and the “Sol pH 7.4” value is above 62 μg/mL.
On to `Cc1ccc(OCc2ccc3c(c2)CCN(C(C)C)C3)c(-c2cccc(-n3ncc(C(=O)O)c3C(F)(F)F)n2)c1` [Compound 21], for which the EC50 in series [1] is 25 nM. Moreover, in series [2], the solubility kinetic was above 55 µg/mL and the “Sol pH 7.4” value was above 55 μg/mL.
`Cc1ccc(OCc2ccc3c(c2C)CCN(C)C3)c(-c2cccc(-c3c(C)c(C(=O)O)nn3C)n2)c1` [Compound 78]: the half-maximal effective concentration (EC50) in series [1] is 970 nM. Further, in series [2], the solubility kinetic stood at 24.1 µg/mL (≈ 48.5 µM) and the “Sol pH 7.4” value is reported as 24.2 μg/mL.
Turning to `Cc1ccc(OCc2ccc3c(c2)CCN(C)C3)c(-c2cccc(-c3sc(C(=O)O)cc3C)n2)c1` [Compound 37, 4-methyl-5-{6-[5-methyl-2-(2-methyl-1,2,3,4-tetrahydro-isoquinolin-6-ylmethoxy)phenyl]pyridin-2-yl}-thiophene-2-carboxylic acid], the EC50 in series [1] turned out to be 198 nM. In series [2], the solubility kinetic turned out to be 14.1 µg/mL (≈ 29.1 µM) and the “Sol pH 7.4” value is recorded as 27.4 μg/mL.
The matching figures for `CCn1cc(CN2CCc3cc(COc4c(C)cccc4-c4cccc(-c5ncc(C(=O)O)n5C)n4)ccc3C2)cn1` [Compound 71]: 159 nM, above 67 µg/mL and above 67 μg/mL.
In the case of `Cc1cccc(-c2cccc(-c3c(C)c(C(=O)O)nn3C(C)(C)C)n2)c1OCc1ccc2c(c1)CCN(C1CCOCC1)C2` [Compound 84], the EC50 in series [1] is 69 nM. For the same compound, in series [2], the solubility kinetic was above 70 µg/mL and the “Sol pH 7.4” value is recorded as above 70 μg/mL.
As to `Cc1ccc(OCc2ccc3c(c2)CCN(Cc2cc(C)on2)C3)c(-c2cccc(-n3ncc(C(=O)O)c3C(F)(F)F)n2)c1` [Compound 31], the concentration giving a half-maximal response (EC50) in series [1] was determined as 2 nM. In series [2], the solubility kinetic is 22 µg/mL (≈ 36.4 µM) and the “Sol pH 7.4” value is recorded as above 60 μg/mL.
With `Cc1ccc(OCc2ccc3c(c2)CCN(CC2CCOC2)C3)c(-c2cccc(-n3ncc(C(=O)O)c3C(F)(F)F)n2)c1` (stereo not drawn) [Compound 23], the EC50 in series [1] stood at 2 nM. In series [2], the solubility kinetic is above 59 µg/mL and the “Sol pH 7.4” value is above 59 μg/mL.
Consider `Cc1ccc(OCc2ccc3c(c2)nnn3C)c(-c2cccc(-n3ncc(C(=O)O)c3C(F)(F)F)n2)c1` [Compound 10], for which the EC50 in series [1] is 280 nM. Further, in series [2], the solubility kinetic was 0.95 µg/mL (≈ 1.87 µM) and the “Sol pH 7.4” value was above 50 μg/mL.
`Cc1cccc(-c2cccc(-c3csc(C(=O)O)c3C)n2)c1OCc1ccc2c(c1)CCN(C1CCOCC1)C2` [Compound 60]: in series [1], the EC50 is 19 nM. Besides, in series [2], the solubility kinetic is above 64 µg/mL and the “Sol pH 7.4” value was above 64 μg/mL.
